# Results as given in patent US20040266882A1 (priority 2001, published 2004).
# Like-named read-outs stand apart in the source and are kept apart here.
# Key:
# B16F10 cells = details: for lung metastatic burden (lung weight increase, number of lung metastasis), single agent: fluoxetine 0.04 mg/kg daily orally alone, or Doxorubicin 10 mg/kg i.v. alone
# [1] = daily dose; cited from earlier work
# C-26 cells = experiment: Solid tumor model, C-26 cells injected into footpad; format: in vivo, mice; details: for solid tumor volume with time, single agent: fluoxetine 0.04 mg/kg daily orally alone, or MMC or DOX 5 mg/kg i.v. alone
# Method: In the solid tumor model, C-26 cells were injected into the animal's right-hind footpad.
# In the solid tumor model, Mitomycin C (MMC) and Doxorubicin (DOX), were tested separately, each at a dose of 5 mg/kg body.
# C6 cells [2] = test system: C6 cells; parameters: effect on cell survival: dose or concentration left out as unconfirmed; details: 24 hours; for enhancement in cell death by the combination treatment: vs drug alone
# [3] = test system: PANC-1, C6, MCF-7, U2OS and HT1080; details: 48 hours; for reduction in cell survival, drug alone: non-resistant cell lines, 0.1 μg/ml DOX or 0.3 μg/ml VIN alone
# Method: Studies similar in general to those outlined in the previous section, were conducted with five cell lines selected for this task (PANC-1, C6, MCF-7, U2OS and HT1080), increasing the length of the experiment to 48 hours. The studies were done with DOX and with Vinblastine (VIN or VLB).
# fibrosarcoma cells = details: doses equivalent to 20-40 mg/M^2; cited from earlier work
# PANC-1 cells = test system: PANC-1 cells; parameters: effect on cell survival: dose or concentration left out as unconfirmed; details: 24 hours; for enhancement in cell death by the combination treatment: vs drug alone
# [4] = test system: concavalin A-stimulated normal lymphocytes; details: doses equivalent to 20-40 mg/M^2; cited from earlier work
# C6 cells [5] = details: cells loaded with 0.1 μg/ml DOX alone
# Method: Cells were grown in monolayers as described above. […] Control cells received media alone.
# [6] = […] μM fluoxetine + 0.1 μg/ml Doxorubicin
# [7] = […] μM fluoxetine + 30 μg/ml Mitomycin C
compound,measurement,setting,value
"CNCCC(Oc1ccc(C(F)(F)F)cc1)c1ccccc1 (stereo not shown) [fluoxetine, N-methyl 3-(p-trifluoromethylphenoxy)-3-phenylpropylamine]","survival, single agent","B16F10 cells; CS alone or CT alone, 75-days experiment",died rather early
same,"lung metastatic burden, combination treatment",B16F10 cells; fluoxetine 0.04 mg/kg daily orally + Doxorubicin 10 mg/kg i.v.,substantial reduction
same,"lung metastatic burden (lung weight increase, number of lung metastasis), single agent",B16F10 cells,highest metastatic burden
same,"survival, combination treatment","B16F10 cells; fluoxetine + Doxorubicin, 75-days experiment",long survivors
same,"known, acceptable safety limit",[1],80 mg/M^2
same,prolongation of survival,"C-26 cells; DOX+CS vs saline, CS alone and DOX alone",3 fold
same,prolongation of survival,"C-26 cells; MMC+CS vs saline, CS alone and MMC alone",2 fold
same,"solid tumor size and growth, combination therapy",C-26 cells; fluoxetine 0.04 mg/kg daily orally + DOX 5 mg/kg i.v.,tumors are substantially smaller
same,"solid tumor size and growth, combination therapy",C-26 cells; fluoxetine 0.04 mg/kg daily orally + MMC 5 mg/kg i.v.,tumors are substantially smaller
same,"solid tumor volume with time, single agent",C-26 cells,increases fast and exponentially
same,enhancement in cell death by the combination treatment,C6 cells [2]; [6],3-4 fold
same,enhancement in cell death by the combination treatment,C6 cells [2]; [7],3-4 fold
same,effect on cell survival,C6 cells [2]; […] μM fluoxetine alone,does not affect cell survival at all
same,"toxicity to the cells, fluoxetine alone","[3]; fluoxetine alone, 0-15 μM",not toxic
same,effect on proliferation of fibrosarcoma cells,fibrosarcoma cells,promotes the proliferation
same,enhancement in cell death by the combination treatment,PANC-1 cells; [6],3-4 fold
same,enhancement in cell death by the combination treatment,PANC-1 cells; [7],3-4 fold
same,effect on cell survival,PANC-1 cells; […] μM fluoxetine alone,does not affect cell survival at all
same,effect on proliferation of concavalin A-stimulated normal lymphocytes,[4],inhibits the proliferation
CO[C@@]12[C@H](COC(N)=O)C3=C(C(=O)C(C)=C(N)C3=O)N1C[C@@H]1N[C@@H]12 [Mitomycin C],"solid tumor volume with time, single agent",C-26 cells,increases fast and exponentially
CC[C@]1(O)C[C@@H]2CN(CCc3c([nH]c4ccccc34)[C@@](C(=O)OC)(c3cc4c(cc3OC)N(C)[C@H]3[C@@](O)(C(=O)OC)[C@H](OC(C)=O)[C@]5(CC)C=CCN6CC[C@]43[C@@H]65)C2)C1 [Vinblastine],"reduction in cell survival, drug alone",[3],50%
COc1cccc2c1C(=O)c1c(O)c3c(c(O)c1C2=O)C[C@@](O)(C(=O)CO)C[C@@H]3O[C@H]1C[C@H](N)[C@H](O)[C@H](C)O1 [Doxorubicin],"lung metastatic burden (lung weight increase, number of lung metastasis), single agent",B16F10 cells,only a mild reduction
same,"solid tumor volume with time, single agent",C-26 cells,increases fast and exponentially
same,depletion of intracellular DOX at 2 hours,C6 cells [5],100%
same,"reduction in cell survival, drug alone",[3],50%
